The term IC50 denotes the point on the concentration scale where inhibition reaches its midpoint.

From US20230148450A9, “BICYCLIC HETEROARYL COMPOUNDS AND USES THEREOF” (Revolution Medicines, Inc., priority 2019, published 2023) come the findings set out here.

The subject of experiment [1] is cellular pERK in PC-9 cells (EGFR Ex19Del). Kind of experiment: Potency Assay: pERK. Type of experiment: cell-based. The conditions noted are these: Homo sapiens; PC-9 cells (EGFR Ex19Del), 1 hour incubation, AlphaLISA p-ERK1/2; read-out: SOS1 pERK IC50. An excerpt: The purpose of this assay is to measure the ability of test compounds to inhibit SOS1 function in cells. SOS1 activates RAS proteins by catalyzing the conversion of […] to […] in response to receptor tyrosine kinase activation. Activation of RAS induces a sequence of cellular signaling events that results in increased phosphorylation of ERK at […] (pERK). The procedure described below measures the level of cellular pERK in response to test compounds in PC-9 cells (EGFR Ex[…]). PC-9 cells were grown and maintained using media and procedures recommended by the ATCC. On the day prior to compound addition, cells were plated in 384-well cell culture plates (40 μL/well) and grown overnight in a 37° C., 5% CO2 incubator. Test compounds were prepared in 10, 3-fold dilutions in DMSO, with a top concentration of 10 mM. On the day of the assay, 40 nL of test compound was added to each well of cell culture plate using an Echo550 liquid handler (LabCyte). Concentrations of test compound were tested in duplicate with highest test concentration being 10 μM. After compound addition, cells were incubated for 1 hour at 37° C., 5% CO2. Following incubation, culture medium was removed and cells were washed once with phosphate buffered saline. Cellular pERK level was determined using the AlphaLISA SureFire Ultra p-ERK1/2 Assay Kit (PerkinElmer). Cells were lysed in 25 μL lysis buffer, with shaking at 600 RPM at room temperature for 15 minutes. Lysate (10 μL) was transferred to a 384-well Opti-plate (PerkinElmer) and 5 μL acceptor mix was added. The plate was centrifuged at 1000 RPM for 1 minute, and incubated in the dark for 2 hours. Following this incubation, 5 μL of donor mix was added, the plate was sealed and centrifuged at 1000 RPM for 1 minute, and the mixture was incubated for 2 hours at room temperature. Signal was read on an Envision plate reader (PerkinElmer) using standard AlphaLISA settings. Analysis of raw data was carried out in Excel (Microsoft) and Prism (GraphPad). Signal was plotted vs. the decadal logarithm of compound concentration, and IC50 was determined by fitting a 4-parameter sigmoidal concentration response model.
Background: Alpha assays give light when donor and acceptor beads are brought close together.

Experiment [2] has as its target T1, SOS1 nucleotide exchange of KRAS (catalytic domain of SOS1, residues 564-1049; wild-type KRAS) (Homo sapiens, UniProt Q07889).
T1 construct: tagless catalytic domain of SOS1 (residues 564-1049)
T1 sequence (Q07889 564-1049): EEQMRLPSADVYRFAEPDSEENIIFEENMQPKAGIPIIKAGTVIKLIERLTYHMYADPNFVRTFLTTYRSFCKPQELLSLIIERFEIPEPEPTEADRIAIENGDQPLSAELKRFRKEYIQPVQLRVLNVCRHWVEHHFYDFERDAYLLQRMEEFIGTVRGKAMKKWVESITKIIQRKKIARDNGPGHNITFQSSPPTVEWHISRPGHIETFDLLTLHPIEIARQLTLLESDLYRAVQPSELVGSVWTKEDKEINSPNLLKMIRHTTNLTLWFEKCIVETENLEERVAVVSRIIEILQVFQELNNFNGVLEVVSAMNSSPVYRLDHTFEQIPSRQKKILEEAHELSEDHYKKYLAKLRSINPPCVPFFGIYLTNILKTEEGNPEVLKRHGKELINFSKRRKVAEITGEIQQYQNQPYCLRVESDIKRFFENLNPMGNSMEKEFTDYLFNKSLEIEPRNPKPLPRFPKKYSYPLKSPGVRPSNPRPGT
Kind of experiment: Mode of Action Assay: Inhibition of SOS1 Nucleotide Exchange Activity (TR-FRET). It counts as biochemical. The conditions noted are these: TR-FRET signal. As for the experimental part:
The purpose of this assay was to characterize the inhibitory activity of compounds on SOS1 nucleotide exchange of KRAS. Data was reported as IC50 values based on the TR-FRET signal.
Note—the following protocol describes a procedure for monitoring the inhibition of SOS1 nucleotide exchange activity of wild-type KRAS in response to a compound of the invention. Other KRAS mutants and RAS isoforms maybe employed.
In assay buffer containing 20 mM HEPES, pH 7.5, 150 mM NaCl, 5 mM MgCl2, 0.05% Tween-20, 0.1% BSA, 1 mM DTT, concentration series of test compounds were generated spanning 100 μM to 1.7 nM over eleven 3-fold serial dilutions in a 384-well assay plate at a volume of 20 μL. The purified tagless catalytic domain of SOS1 (residues 564-1049) was first diluted in assay buffer at a concentration of 100 nM, and then 20 μL of the SOS1 containing solution was directly dispensed into compound plates. The SOS1/compound mixture was incubated at room temperature with constant mixing on an orbital shaker for 20 minutes to allow the reaction to reach equilibrium. A KRAS mixture was prepared by diluting 66.7 nM avi-tagged KRAS (residue 1-169), 3.33 nM Streptavidin-Tb and 333 nM EDA-GTP-DY-647P1 in assay buffer. This mixture was prepared immediately before addition to the SOS1/compound mixture to prevent intrinsic nucleotide exchange. Then 5 μL of the pre-incubated SOS1/compound mixture and 7.5 μL of the KRAS mixture were added sequentially in a 384-well low volume black round bottom plate and incubated at room temperature with constant shaking for 30 minutes. Time-resolved fluorescence was measured on a PerkinElmer Envision plate reader. DMSO and 10 μM of compound (i) were used as negative and positive controls, respectively.
Three replicates were performed for each compound. Data were normalized by the following: (Positive control—Sample signal)/(Positive control—negative control)*100. The data were fit using a four-parameter logistic fit.
A general note: Time-resolved FRET reads energy transfer from a long-lived donor to a nearby acceptor.

SMILES strings stand for the structures.

As to `C[C@@H](Nc1ncnc2c1cc(C1CCNCC1)n2C)c1cc(N)cc(C(F)(F)F)c1` [Example 38, N-[(1R)-1-[3-amino-5-(trifluoromethyl)phenyl]ethyl]-7-methyl-6-(4-piperidyl)pyrrolo[2,3-d]pyrimidin-4-amine], in experiment [1], the IC50 is above 1000 nM. For the compound `C[C@@H](Nc1ncnc2cc(C3=CCNCC3)sc12)c1cc(N)cc(C(F)(F)F)c1` [Example 49, N-[(1R)-1-[3-amino-5-(trifluoromethyl)phenyl]ethyl]-6-(1,2,3,6-tetrahydropyridin-4-yl)thieno[3,2-d]pyrimidin-4-amine], the IC50 in experiment [1] and in experiment [2] was above 1000 nM each time. On to `C[C@@H](Nc1nccc2sc(C3=CCNCC3)cc12)c1cc(N)cc(C(F)(F)F)c1` [Example 56, N-[(1R)-1-[3-amino-5-(trifluoromethyl)phenyl]ethyl]-2-(1,2,3,6-tetrahydropyridin-4-yl)thieno[3,2-c]pyridin-4-amine], for which the IC50 in experiment [1] and in experiment [2] was above 1000 nM in each case. `Cc1cn2nc(C(=O)N3CCN(C)CC3)cc2c(N[C@H](C)c2cccc(C(F)(F)F)c2)n1` [Example 61]: the IC50 in experiment [1] and in experiment [2] was above 1000 nM each time. Consider `C[C@@H](Nc1nc(Cl)nn2cc(C(=O)N3CCOCC3)cc12)c1cc(N)cc(C(F)(F)F)c1` [Example 68], for which the IC50 in experiment [1] is below 1000 nM. `Cc1cn2nc(C(=O)N3CC4CCC(C3)N4C)cc2c(N[C@H](C)c2cc(N)cc(C(F)(F)F)c2)n1` [Example 78]: the IC50 in experiment [1] and in experiment [2] was below 1000 nM each time. With `C[C@@H](Nc1nc(Cl)nn2cc(C(=O)N3CCN(C)CC3)cc12)c1cc(N)cc(C(F)(F)F)c1` [Example 94, N-[(1R)-1-[3-amino-5-(trifluoromethyl)-phenyl]ethyl]-2-chloro-6-(4-methylpiperazine-1-carbonyl)pyrrolo[2,1-f][1,2,4]triazin-4-amine], the IC50 in experiment [1] and in experiment [2] was below 1000 nM each time. Turning to `C[C@@H](Nc1nc(Cl)nn2cc(C(=O)N3CCN(C)CC3)cc12)c1cccc(C(F)(F)F)c1` [Example 95], the IC50 in experiment [1] and in experiment [2] was above 1000 nM each time. In the case of `C[C@@H](Nc1nc(Cl)nn2cc(C(=O)N3CC4(COC4)C3)cc12)c1cccc(C(F)(F)F)c1` [Example 96], the figures for the IC50 in experiment [1] and in experiment [2] were below 1000 nM and above 1000 nM, respectively.

As to `C[C@@H](Nc1nc(Cl)nn2cc(C(=O)N3CCN(C)CC3)cc12)c1cccc(C(F)F)c1F` [Example 98], the IC50 in experiment [1] and in experiment [2] was below 1000 nM each time. As to `C[C@@H](Nc1nc(Cl)cn2cc(C(=O)N3CCOCC3)cc12)c1cc(N)cc(C(F)(F)F)c1` [Example 102, N-[(1R)-1-[3-amino-5-(trifluoromethyl)phenyl]ethyl]-3-chloro-7-(morpholine-4-carbonyl)pyrrolo [1,2-a]pyrazin-1-amine], the IC50 in experiment [1] and in experiment [2] was above 1000 nM throughout.
